Measured values reported in patent US10807992B2, “Single enantiomer antiparasitic compounds” (priority 2017, dated 2020).
Read-outs that look alike come from different tables or passages of the source.

Experiment: Plasma PK from oral tick and flea efficacy studies of the C1 racemate
Assay type: in vivo, Mongrel dogs
Settings: for Cmax / AUC(0-t) / AUC(0-inf) / half-life / CL/F / Tmax: mongrel, dog, po; for Cmax / AUC(0-t) / AUC(0-inf) / half-life / CL/F / Tmax / tlast: plasma; for AUC(0-t): read-out: NCA AUC0-last
Excerpt: However, the S- enantiomer plasma PK curves and calculated PK parameters conducted in beagle dogs differed from oral efficacy studies conducted on the racemate dosed in mongrels.
Pharmacokinetic results from the compound C1 (S) enantiomer PK study differed from racemic efficacy studies. Average plasma pharmacokinetic parameters from the compound C1 (S) enantiomer PK study described in this document are compared to those from oral efficacy studies of the racemate in Table 6.

[1] = 10 mg/kg, Flea Efficacy study, oral 10 mg/kg
[2] = 10 mg/kg, Tick Efficacy study, oral 10 mg/kg
[3] = 20 mg/kg, Flea Efficacy study, oral 20 mg/kg
[4] = 20 mg/kg, Tick Efficacy study, oral 20 mg/kg

In the case of O=C(CC(F)(F)F)N1CC2(C1)OCc1cc(C3=NSC(c4cc(Cl)c(F)c(Cl)c4)(C(F)(F)F)C3)ccc12 (racemic) [C1 racemate, 1-[6-[5-(3,5-dichloro-4-fluoro-phenyl)-5-(trifluoromethyl)-4H-isothiazol-3-yl]spiro[1H-isobenzofuran-3,3′-azetidine]-1′-yl]-3,3,3-trifluoro-propan-1-one], the “absorption and elimination in dogs” value (dogs, oral) is reported as “well-absorbed compound with an extended elimination half-life in dogs”, the Cmax (10 mg/kg, Mongrel, Flea Efficacy study, oral 10 mg/kg, read-out: Cmax) is reported as 3470 ng/mL and the AUC(0-t) (10 mg/kg, Mongrel, Flea Efficacy study, oral 10 mg/kg) is reported as 266 µg·h/mL. It also gave an AUC(0-inf) (10 mg/kg, Mongrel, Flea Efficacy study, oral 10 mg/kg, read-out: NCA AUC0-∞) of 361 µg·h/mL, a half-life (10 mg/kg, Mongrel, Flea Efficacy study, oral 10 mg/kg, read-out: t1/2 (converted)) of 23.8 days and a Cmax (10 mg/kg, Mongrel, Tick Efficacy study, oral 10 mg/kg, read-out: Cmax) of 3780 ng/mL. The AUC(0-t) (10 mg/kg, Mongrel, Tick Efficacy study, oral 10 mg/kg) was 344 µg·h/mL, the AUC(0-inf) (10 mg/kg, Mongrel, Tick Efficacy study, oral 10 mg/kg, read-out: NCA AUC0-∞) was 395 µg·h/mL and the half-life (10 mg/kg, Mongrel, Tick Efficacy study, oral 10 mg/kg, read-out: t1/2 (converted)) was 16.4 days. The AUC(0-inf) (10 mg/kg, range over racemate efficacy studies, at 10 mg/kg, read-out: plasma area under the curve extrapolated to infinity (AUC0-∞)) was 361 to 395 µg·h/mL, the Cmax (10 mg/kg, range over racemate efficacy studies, dosed at 10 mg/kg, read-out: plasma Cmax) was 3470 to 3780 ng/mL and the CL/F [1] was 0.643 mL/min/kg. The Tmax [1] was 0.0417 days, the CL/F [2] was 0.502 mL/min/kg and the Tmax [2] was 0.125 days. The Cmax (20 mg/kg, Mongrel, Flea Efficacy study, oral 20 mg/kg, read-out: Cmax) was 4740 ng/mL, the AUC(0-t) (20 mg/kg, Mongrel, Flea Efficacy study, oral 20 mg/kg) was 463 µg·h/mL and the AUC(0-inf) (20 mg/kg, Mongrel, Flea Efficacy study, oral 20 mg/kg, read-out: NCA AUC0-∞) was 525 µg·h/mL. The half-life (20 mg/kg, Mongrel, Flea Efficacy study, oral 20 mg/kg, read-out: t1/2 (converted)) was 14.9 days, the Cmax (20 mg/kg, Mongrel, Tick Efficacy study, oral 20 mg/kg, read-out: Cmax) was 6240 ng/mL and the AUC(0-t) (20 mg/kg, Mongrel, Tick Efficacy study, oral 20 mg/kg) was 494 µg·h/mL. For the same compound, the AUC(0-inf) (20 mg/kg, Mongrel, Tick Efficacy study, oral 20 mg/kg, read-out: NCA AUC0-∞) was 674 µg·h/mL, the half-life (20 mg/kg, Mongrel, Tick Efficacy study, oral 20 mg/kg, read-out: t1/2 (converted)) was 23.8 days and the CL/F [3] was 0.737 mL/min/kg. For the same compound, the Tmax [3] was 0.0417 days, the CL/F [4] was 0.693 mL/min/kg and the Tmax [4] was 0.0833 days. The half-life (range over racemate efficacy studies, read-out: half-life) was 14.9 to 23.8 days, the CL/F (range over racemate efficacy studies) was 0.5 to 0.733 mL/min/kg and the tlast (Mongrel, Flea Efficacy study, oral 10 mg/kg) was 1032 h. For the same compound, the tlast (Mongrel, Flea Efficacy study, oral 20 mg/kg) was 1032 h, the tlast (Mongrel, Tick Efficacy study, oral 10 mg/kg) was 1056 h and the tlast (Mongrel, Tick Efficacy study, oral 20 mg/kg) was 1056 h.
